Data as given in patent US20110065675A1, “AZO DYE RELATED SMALL MOLECULE MODULATORS OF PROTEIN-PROTEIN INTERACTIONS” (University of Miami, priority 2008, published 2011).
Read-outs that look alike come from different tables or passages of the source.

Assays:
[1] = target: human TNF-R1/TNFα (Homo sapiens, UniProt P01375+P19438); test: Specificity test: human TNF-R1/TNFα binding inhibition assay; details: for IC50: cell-free binding, read-out: Human TNFR1/TNFα IC50; for Human TNFR1/TNFα log IC50: log of IC50, cell-free binding
Chain of human TNF-R1/TNFα (P01375 77-233 limits assumed): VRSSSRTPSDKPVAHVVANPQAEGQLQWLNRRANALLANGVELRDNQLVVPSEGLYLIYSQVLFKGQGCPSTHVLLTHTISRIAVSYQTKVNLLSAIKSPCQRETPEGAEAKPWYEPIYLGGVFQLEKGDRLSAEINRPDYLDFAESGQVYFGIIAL
Chain of human TNF-R1/TNFα (P19438 30-211 limits assumed): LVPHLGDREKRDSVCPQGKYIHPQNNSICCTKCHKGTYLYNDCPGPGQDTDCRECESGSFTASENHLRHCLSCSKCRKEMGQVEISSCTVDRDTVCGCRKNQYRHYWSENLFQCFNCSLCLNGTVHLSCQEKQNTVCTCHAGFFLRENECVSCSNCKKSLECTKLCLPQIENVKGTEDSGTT
Description: A main concern for the therapeutic applicability of these compounds and of small molecule PPI inhibitors in general is related to their ability to achieve some acceptable degree of selectivity/specificity for the PPI of interest. To identify compounds that show acceptable specificity for the CD40/CD154 system, their ability to inhibit the TNF-R1/TNF-α PPI was investigated since this is particularly relevant as CD154 is part of the TNF superfamily. The experimental setup used was very similar to the one described in Example 1, but using plate-coated TNF-R1 and TNF-α as ligand (with a corresponding anti-TNF-α mAb as positive control). The concentration of TNF-R1 and TNF-α used were 0.6 μg/mL and 0.02 μg/mL, respectively.

[2] = target: T1, human CD40/CD154 (Homo sapiens, UniProt P29965); test: Human CD40/CD154 binding inhibition assay (cell-free, plate-based)
T1 construct: CD154 (soluble human, FLAG-tagged, recombinant from Alexis Biochemicals; MW=18 kDa); purchased Alexis Biochemicals
T1 sequence (P29965 113-261 limits assumed): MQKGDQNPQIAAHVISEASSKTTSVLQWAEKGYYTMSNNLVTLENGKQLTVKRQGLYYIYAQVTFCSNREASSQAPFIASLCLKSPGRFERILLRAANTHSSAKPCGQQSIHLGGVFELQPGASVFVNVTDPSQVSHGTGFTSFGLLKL
Description: A 96-well plate-based cell-free in vitro binding inhibition assay, which is a modification of an assay described in U.S. Pat. No. 7,173,046, incorporated by reference in its entirety, has been developed and used for activity screening. Briefly, CD40 is coated at a preselected concentration, and binding of (FLAG-tagged) CD154 is measured by reacting with secondary antibody and using TMB liquid substrate system as a substrate for horseradish peroxidase for reading at 450 nm. The detailed procedure is as follows: Microtiter plates (Nunc F MaxiSorp) were coated with […] of CD40: Fc (human:Fc human, recombinant from Alexis Biochemicals; MW=54 kDa) diluted in PBS pH 7.2 at a preselected concentration of 0.3125 μg/mL. Plates were covered with plate sealer and stored overnight at 4° C. The liquid was removed from the plates and blotted dry. Plates were blocked by washing once with approx. 300 μL/well of Blocking Solution (PBS pH 7.2, 0.05% Tween-20, 1% BSA) and incubated with the same solution for 1 hour at room temperature (RT) or at 4° C. overnight. Coated plates were washed three times with Washing Solution (PBS pH 7.4, 0.05% Tween-20) and blotted dry. A preselected dilution of CD154 (soluble human, FLAG-tagged, recombinant from Alexis Biochemicals; MW=18 kDa) of 0.0087500875 μg/mL range was prepared in 100 mM HEPES, 0.005% BSA pH 7.2. Binding was carried out by adding 100 μL of this CD154 dilution/well and incubating at RT in the presence of test compounds (or blank as negative control). After incubation, the plates were washed with Washing Solution and blotted dry. Bound CD154 was detected with 200 μL/well of secondary antibody mAb ANTI-FLAG M2—Peroxidase Conjugate (anti-FLAG M2-peroxidase HRP conjugate; Sigma-Aldrich) diluted 1:40,000 in Washing Solution. After incubation, the plates were washed and blotted dry. 200 μL/well of the HR-Peroxidase substrate TMB (3,3′,5,5′-tetramethylbenzidine; Sigma-Aldrich) were added, and the plates were incubated for approximately 30 minutes in the dark. The reaction was stopped with 0.5 M H2SO4 and read at 450 nm. All conditions were tested in at least three independent experiments in duplicate or triplicate per plates. Data were normalized and fitted with standard log inhibitor vs. response models using GraphPad Prism 5 to establish median inhibitory ICso values.
A representative result using the monoclonal anti-human CD154 antibody (R&D Systems, monoclonal anti-human CD40 ligand/TNFSF5 antibody, MAB617; MW≈150 kDa used) as positive control is shown in FIG. 1.
Binding inhibition assays with this system provided consistent and well-reproducible results, as FIG. 1 (bottom), focusing on the concentration range of their activities, illustrates. […] The effect of DMSO, which was used as the diluting solvent for the non-water-soluble compounds and is a standard solvent in HTS assays, on the integrity of the assay has been examined. DMSO concentrations above 10% interfere with the binding assay, but concentrations below 3% have no effect. […] Because 5 or 10 mM stock solutions were used, all IC50 values below 250 μM can be considered as unaffected by DMSO.

[3] = target: T2, mouse CD40/CD154 (mCD40:mCD154) (Mus musculus, UniProt P27548); test: Murine CD40/CD154 binding inhibition assay; details: for IC50: cell-free binding, read-out: Mouse CD40/CD154 IC50; for Mouse CD40/CD154 log IC50: log of IC50, cell-free binding
T2 construct: (FLAG-tagged) mCD154 (recombinant mouse CD40L, soluble, Alexis Biochemicals); purchased R&D Systems (mCD40/Fc); Alexis Biochemicals (mCD154)
T2 sequence (P27548 112-260 limits assumed): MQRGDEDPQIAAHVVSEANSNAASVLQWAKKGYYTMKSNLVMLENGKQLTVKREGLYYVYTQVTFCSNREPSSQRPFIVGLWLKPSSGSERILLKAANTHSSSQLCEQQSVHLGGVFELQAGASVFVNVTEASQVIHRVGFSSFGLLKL
Description: Compounds of interest were also tested in a murine (mouse) model similar to the human one with murine CD40 and CD154 replacing the corresponding human proteins. This serves as additional confirmation of the in vitro inhibitory potential of these compounds, and it was considered important because mouse models are likely to be used as the first in vivo tests. […] The experimental setup used was similar to the one described above, but using mCD40 (recombinant mouse CD40/TNFRSF5/Fc Chimera, soluble, R&D Systems) and (FLAG-tagged) mCD154 (recombinant mouse CD40L, soluble, Alexis Biochemicals). This time, however, a higher concentration of CD154 ligand had to be employed to obtain adequate signals, and after a number of calibration tests, mCD40 coating at 0.3125 μg/mL with mCD154 (mCD40L) at 1.1212 μg/mL range was selected to be used to screen the inhibiting activity of various compounds.
The experiments confirmed that the murine anti-CD154 monoclonal antibody (Taconic, MR1) was active in this system at the expected concentration (˜1 nM range), the human antibody was not, and vice versa, the human mAb was active in the human system, but not in the mouse system. The mouse system provided a similar range of activity with some (up to approximately five-fold) changes in activities compared to that seen in the human system (FIG. 2) (Table 1).

[4] = cell-free binding, read-out: Human CD40/CD154 IC50
[5] = cell-free binding, read-out: Human CD40/CD154 IC50 (ug/mL) (converted)
[6] = log of IC50, cell-free binding, read-out: Human CD40/CD154 log IC50 (converted)

| Compound | IC50 [1] [µM] | Human TNFR1/TNFα log IC50 [1] | Human CD40/CD154 IC50 ([2]; cell-free binding) [µg/mL] | IC50 [2, 4] [µM] | Human CD40/CD154 log IC50 ([2]; log of IC50, cell-free binding) | IC50 [3] [µM] | Mouse CD40/CD154 log IC50 [3] | IC50 [2, 5] [µM] | IC50 [2, 6] [µM] |
| --- | --- | --- | --- | --- | --- | --- | --- | --- | --- |
| Nc1c(N=Nc2cccc([N+](=O)[O-])c2)c(S(=O)(=O)[O-])cc2cc(S(=O)(=O)[O-])c(N=Nc3ccccc3)c(O)c12.[Na+].[Na+] [Acid blue 29, acid blue 29] | 467 | −3.33 | 18.6 | 30.2 | −4.52 |  |  |  |  |
| O=S(=O)([O-])c1cccc(N=Nc2ccc(N=Nc3ccc(Nc4ccccc4)c4c(S(=O)(=O)[O-])cccc34)c3ccccc23)c1.[Na+].[Na+] [Acid blue 113, acid blue 113] |  |  | 0.8 | 1.1 | −5.95 |  |  |  |  |
| Cc1ccc(S(=O)(=O)Oc2ccc(N=Nc3ccc(-c4ccc(N=Nc5c(O)ccc6cc(S(=O)(=O)[O-])cc(S(=O)(=O)[O-])c56)c(C)c4)cc3C)cc2)cc1.[Na+].[Na+] [Acid red 114, C.I. acid red 114] | 14.2 | −4.85 | 2.4 | 2.8 | −5.55 |  |  |  |  |
| O=S(=O)([O-])c1cc(S(=O)(=O)[O-])c2c(N=Nc3ccc(N=Nc4ccccc4)cc3)c(O)ccc2c1.[Na+].[Na+] [Brilliant crocein (crocein scarlet MOO), Brilliant crocein, reference compound] |  |  | 92.8 | 141 | −3.85 | 282 | −3.55 |  |  |
| Nc1ccc(N=Nc2ccc(-c3ccc(N=Nc4c(S(=O)(=O)[O-])cc5cc(S(=O)(=O)[O-])c(N=Nc6ccccc6)c(O)c5c4N)cc3)cc2)c(N)c1.[Na+].[Na+] [Chlorazol black (direct black 38), direct black 38] |  |  | 0.9 | 1.1 | −5.95 |  |  |  |  |
| Nc1c(/N=N/c2ccc(-c3ccc(/N=N/c4cc(S(=O)(=O)O)c5ccccc5c4N)cc3)cc2)cc(S(=O)(=O)O)c2ccccc12 [Congo red] | 34.9 |  |  | 5.7 |  |  |  | 6.13 |  |
| Cc1cc(S(=O)(=O)[O-])ccc1N=Nc1ccc(N=Nc2c(O)ccc3cccc(S(=O)(=O)[O-])c23)c(C)c1.[Na+].[Na+] [Crocein scarlet 7B, crocein scarlet 7B] | 168 | −3.77 | 3.6 | 5.5 | −5.26 | 13.7 | −4.86 |  |  |
| COc1cc(-c2ccc(N=Nc3c(S(=O)(=O)[O-])cc4cc(S(=O)(=O)[O-])cc(N)c4c3O)c(OC)c2)ccc1N=Nc1c(S(=O)(=O)[O-])cc2cc(S(=O)(=O)[O-])cc(N)c2c1O.[Na+].[Na+].[Na+].[Na+] [Direct blue 15, direct blue 15] |  |  | 1.4 | 1.4 | −5.86 |  |  |  |  |
| Nc1ccc2c(O)c(N=Nc3ccc(N=Nc4ccc(N=Nc5cc(S(=O)(=O)[O-])c6cccc(S(=O)(=O)[O-])c6c5)c5ccccc45)c4ccc(S(=O)(=O)[O-])cc34)c(S(=O)(=O)[O-])cc2c1.[Na+].[Na+].[Na+].[Na+] [Direct blue 71, direct blue 71] | 98.5 | −4.01 | 2.2 | 2.1 | −5.68 |  |  |  |  |
| CCOc1ccc(N=Nc2ccc(-c3ccc(N=Nc4c(O)ccc5cc(S(=O)(=O)[O-])cc(S(=O)(=O)[O-])c45)cc3)cc2)cc1.[Na+].[Na+] [Direct red 37, direct red 37] |  |  | 8.8 | 13 | −4.88 |  |  |  |  |
| COc1ccccc1NC(=O)C(N=Nc1ccc(-c2nc3ccc(C)c(S(=O)(=O)[O-])c3s2)cc1S(=O)(=O)[O-])C(C)=O.[Na+].[Na+] (centres unmarked) [Direct yellow 27, direct yellow 27] | 42.4 | −4.37 | 1.3 | 1.9 | −5.72 |  |  |  |  |
| Cc1cc(-c2ccc(/N=N/c3ccc4c(S(=O)(=O)O)cc(S(=O)(=O)O)c(N)c4c3O)c(C)c2)ccc1/N=N/c1ccc2c(S(=O)(=O)O)cc(S(=O)(=O)O)c(N)c2c1O [Evans blue] |  |  |  |  |  |  |  | 1.6 | 1.45 |
| Nc1cc(N)c(N=Nc2cccc3c(S(=O)(=O)O)cccc23)cc1N=Nc1cc([N+](=O)[O-])ccc1O.[Na] [Mordant brown 1, mordant brown 1] | 86 | −4.07 | 0.3 | 0.7 | −6.18 |  |  |  |  |
| Cc1cc(-c2ccc(/N=N/c3c(S(=O)(=O)O)cc4cc(S(=O)(=O)O)cc(N)c4c3O)c(C)c2)ccc1/N=N/c1c(S(=O)(=O)O)cc2cc(S(=O)(=O)O)cc(N)c2c1O [Trypan blue, trypan blue] |  |  |  |  |  |  |  | 4.24 | 3.8 |
| acid red 188 |  |  | 7.0 | 12.8 | −4.89 |  |  |  |  |
| direct blue 120 |  |  | 1.4 | 1.6 | −5.80 |  |  |  |  |
| direct red 53 |  |  | 16.2 | 24.4 | −4.61 |  |  |  |  |
